# Laboratory results taken from patent publication US20240124491A1, “METHODS AND COMPOUNDS FOR TREATING FRIEDREICH'S ATAXIA” (Design Therapeutics, Inc., priority 2021, published 2024).
# Tested on: human FXN
# Experiment: EC50 assay: FXN mRNA expression by qRT-PCR in GM15850 cells after 48 hrs compound treatment
# Format: cell-based
# Details: 48 hrs incubation, hFXN expression normalized to hGAPDH (qRT-PCR), read-out: EC50 WT (nM, 48 hr)
# Method: Cell culture: Cells were cultured in RPMI1640 medium+15% FBS. Cells were maintained at a density between 2e5/mL and 1e6/mL. Cells were centrifuged, resuspended in fresh medium, counted and plated at 150,000 cells per well in 100 uL in a non-coated, flat bottom tissue culture plate.
# Compound treatment: 10 mM stock solution of FA GeneTAC was diluted 1:10 in DMSO followed by a 1:100 dilution in growth medium. Working solution was then further diluted to 10× desired final concentration of 150 nM. Compound was then diluted at a 1:3 ratio into growth medium containing 0.01% DMSO. 5-point, 3-fold dose response curve was generated. 11 μL of 1OX compound was added to wells containing 100 μL cell suspension of GM15850. 11 μL growth medium containing 0.01% DMSO was added to all wells not treated with FA GeneTAC. Cells were allowed to incubate for 48 hrs prior to cell lysis using guanidine isothiocyanate solution.
# RNA isolation: Total RNA was isolated and purified in 384-well column filter plates using chaotropic salt.
# qRT-PCR: qRT-PCR reactions were assembled using AgPath-ID reagents (Thermo Fisher) using 6 uL mastermix and 4 μL RNA. qRT-PCR TaqMan primer probe sets against human FXN (Assay ID Hs01075496_m1) and human GAPDH (Assay ID Hs00266705_g1) were used to measure the intended targets. qRT-PCR was run on the ThermoFisher QuantStudio 6 PRO instrument using the manufacturer's recommended cycling conditions.
# Data analysis: qPCR data was analyzed using Thermo Fisher Design and Analysis software. Data was exported to Excel and hFXN expression was normalized to hGAPDH expression
# A<100 nM; B is 100 nM to 500 nM; C>500 nM.
row,SMILES,EC50 [nM]
1,"C=C(C)c1ccc(Oc2c(C)cc(F)cc2C)c(-c2cn(C)c(=O)c3[nH]c(C(=O)Nc4ccc(OCCOCCOCCOCCOCCOCCOCCOCCOCCNC(=O)CCNC(=O)c5nc(NC(=O)CCNC(=O)c6cc(NC(=O)c7nc(NC(=O)CCNC(=O)c8cc(NC(=O)c9nccn9C)cn8C)cn7C)cn6C)cn5C)cc4)cc23)c1 [Compound 197, N-(5-{[2-({2-[(2-{[26-(4-{14-[2-(4-fluoro-2,6-dimethylphenoxy)-5-(prop-1-en-2-yl)phenyl]-6-methyl-7-oxo-1H-pyrrolo[2,3-c]pyridine-2-amido}phenoxy)-3,6,9,12,15,18,21,24-octaoxahexacosan-1-yl]carbamoyl]ethyl)carbamoyl]-1-methylimidazol-4-yl]carbamoyl)ethyl]carbamoyl]-1-methylpyrrol-3-yl)-1-methyl-4-(3-{[1-methyl-4-(1-methylimidazole-2-amido)pyrrol-2-yl]formamido]propanamido)imidazole-2-carboxamide]",100 to 500

# Same assay, conditions: Homo sapiens, 48 hrs incubation, hFXN expression normalized to hGAPDH (qRT-PCR), read-out: EC50 WT (nM, 48 hr)
row,SMILES,EC50 [nM]
1,COc1ccc2c(c1)C(c1ccc(Cl)cc1)=N[C@@H](CC(=O)N1CCC(CN3CCN(CCOCCOCCOCCOCCOCCOCCOCCNC(=O)CCNC(=O)c4nc(NC(=O)CCNC(=O)c5cc(NC(=O)c6nc(NC(=O)CCNC(=O)c7cc(NC(=O)c8nccn8C)cn7C)cn6C)cn5C)cn4C)CC3)CC1)c1nnc(C)n1-2 [Compound 56],100 to 500
2,Cc1cc(F)cc(C)c1Oc1ccc(C(C)(C)O)cc1-c1cn(C)c(=O)c2[nH]c(C(=O)N3CCC(N4CCN(CCOCCOCCOCCOCCC(=O)NCCCN(CCCNC(=O)CCNC(=O)c5nc(NC(=O)CCNC(=O)c6cc(NC(=O)c7nc(NC(=O)CCNC(=O)c8cc(NC(=O)c9nccn9C)cn8C)cn7C)cn6C)cn5C)CC(F)(F)F)CC4)CC3)cc12 [Compound 170],> 500
3,Cc1sc2c(c1C)C(c1ccc(Cl)cc1)=N[C@@H](CC(=O)NCCCCCN(CCCCCNC(=O)C[C@@H]1N=C(c3ccc(Cl)cc3)c3c(sc(C)c3C)-n3c(C)nnc31)CCOCCOCCOCCOCCOCCOCCOCCNC(=O)CCNC(=O)c1nc(NC(=O)CCNC(=O)c3cc(NC(=O)c4nc(NC(=O)CCNC(=O)c5cc(NC(=O)c6nccn6C)cn5C)cn4C)cn3C)cn1C)c1nnc(C)n1-2 [Compound 114],< 100
4,Cc1sc2c(c1C)C(c1ccc(Cl)cc1)=N[C@@H](CC(=O)NC1CCN(CCOCCOCCOCCOCCC(=O)NC3(C(=O)NCCOCCOCCOCCNC(=O)CCNC(=O)c4nc(NC(=O)CCNC(=O)c5cc(NC(=O)c6nc(NC(=O)CCNC(=O)c7cc(NC(=O)c8nccn8C)cn7C)cn6C)cn5C)cn4C)CCNCC3)CC1)c1nnc(C)n1-2 [Compound 70],100 to 500
5,Cc1sc2c(c1C)C(c1ccc(Cl)cc1)=N[C@@H](CC(=O)N1CCC(C#CC#CC3CCN(CCOCCOCCOCCOCCOCCNC(=O)CCNC(=O)c4nc(NC(=O)CCNC(=O)c5cc(NC(=O)c6nc(NC(=O)CCNC(=O)c7cc(NC(=O)c8nccn8C)cn7C)cn6C)cn5C)cn4C)CC3)CC1)c1nnc(C)n1-2 [Compound 140],< 100
6,"Cc1cc(F)cc(C)c1Oc1ccc(C(C)(C)O)cc1-c1cn(C)c(=O)c2[nH]c(C(=O)Nc3ccc(OCCOCCOCCOCCOCCOCCOCCOCCOCCNC(=O)CCNC(=O)c4nc(NC(=O)CCNC(=O)c5cc(NC(=O)c6nc(NC(=O)CCNC(=O)c7cc(NC(=O)c8nccn8C)c[nH]7)cn6C)c[nH]5)cn4C)cc3)cc12 [Compound 224, N-(5-{[2-({2-[(2-{[26-(4-{4-[2-(4-fluoro-2,6-dimethylphenoxy)-5-(2-hydroxypropan-2-yl)phenyl]-6-methyl-7-oxo-1H-pyrrolo[2,3-c]pyridine-2-amido}phenoxy)-3,6,9,12,15,18,21,24-octaoxahexacosan-1-yl]carbamoyl]ethyl)carbamoyl]-1-methylimidazol-4-yl]carbamoyl)ethyl]carbamoyl]-1H-pyrrol-3-yl)-1-methyl-4-(3-{[4-(1-methylimidazole-2-amido)-1H-pyrrol-2-yl]formamido]propanamido)imidazole-2-carboxamide]",< 100
7,COc1ccc2c(c1)C(c1ccc(Cl)cc1)=N[C@@H](CC(=O)NC1CCN(CCOCCOCCOCCN3CCN(CCOCCOCCOCCNC(=O)CCNC(=O)c4nc(NC(=O)CCNC(=O)c5cc(NC(=O)c6nc(NC(=O)CCNC(=O)c7cc(NC(=O)c8nccn8C)cn7C)cn6C)cn5C)cn4C)CC3)CC1)c1nnc(C)n1-2 [Compound 24],100 to 500
8,"Cn1cc(NC(=O)c2nc(NC(=O)CCNC(=O)c3cc(NC(=O)c4nccn4C)cn3C)cn2C)cc1C(=O)NCCC(=O)Nc1cn(C)c(C(=O)NCCC(=O)NCCOCCOCCOCCOCCOCCOCCOCCOCCOc2ccc(NC(=O)c3cc4c(-c5cc(S(C)(=O)=O)ccc5Oc5ccc(F)cc5F)cn(C)c(=O)c4[nH]3)cc2)n1 [Compound 207, N-(5-{[2-({2-[(2-{[26-(4-{14-[2-(2,4-difluorophenoxy)-5-methanesulfonylphenyl]-6-methyl-7-oxo-1H-pyrrolo[2,3-c]pyridine-2-amido}phenoxy)-3,6,9,12,15,18,21,24-octaoxahexacosan-1-yl]carbamoyl]ethyl)carbamoyl]-1-methylimidazol-4-yl}carbamoyl)ethyl]carbamoyl}-1-methylpyrrol-3-yl)-1-methyl-4-(3-{[1-methyl-4-(1-methylimidazole-2-amido)pyrrol-2-yl]formamido]propanamido)imidazole-2-carboxamide]",< 100
9,COCCOCCOCCOCCOCCOCCOc1cc(NC(=O)C[C@@H]2N=C(c3ccc(Cl)cc3)c3c(sc(C)c3C)-n3c(C)nnc32)ccc1OCCOCCOCCOCCOCCOCCOCCOCCOCCNC(=O)CCNC(=O)c1nc(NC(=O)CCNC(=O)c2cc(NC(=O)c3nc(NC(=O)CCNC(=O)c4cc(NC(=O)c5nccn5C)cn4C)cn3C)cn2C)cn1C [Compound 211],100 to 500
10,Cc1cc(F)cc(C)c1Oc1ccc(C(C)(C)O)cc1-c1cn(C)c(=O)c2[nH]c(C(=O)N3CCN(CC4CCN(CCOCCOCCOCCOCCOCCOCCNC(=O)CCNC(=O)c5nc(NC(=O)CCNC(=O)c6cc(NC(=O)c7nc(NC(=O)CCNC(=O)c8cc(NC(=O)c9nccn9C)cn8C)cn7C)cn6C)cn5C)CC4)CC3)cc12 [Compound 167],> 500
11,Cc1sc2c(c1C)C(c1ccc(Cl)cc1)=N[C@@H](CC(=O)N[C@H]1CC[C@@H](N(C)CCOCCOCCOCCN3CCN(CCOCCOCCOCCNC(=O)CCNC(=O)c4nc(NC(=O)CCNC(=O)C5=CC(NC(=O)c6nc(NC(=O)CCNC(=O)c7cc(NC(=O)c8nccn8C)cn7C)cn6C)CN5C)cn4C)CC3)CC1)c1nnc(C)n1-2 (stereo partly shown) [Compound 86],100 to 500
12,"Cc1cc(F)cc(C)c1Oc1ccc(C(C)(C)O)cc1-c1cn(C)c(=O)c2[nH]c(C(=O)Nc3ccc(OCCOCCOCCOCCOCCOCCOCCOCCNC(=O)CCNC(=O)c4nc(NC(=O)CCNC(=O)c5cc(NC(=O)c6nc(NC(=O)CCNC(=O)c7cc(NC(=O)c8nccn8C)cn7C)cn6C)cn5C)cn4C)cc3)cc12 [Compound 205, N-(5-{[2-({2-[(2-{[23-(4-{4-[2-(4-fluoro-2,6-dimethylphenoxy)-5-(2-hydroxypropan-2-yl)phenyl]-6-methyl-7-oxo-1H-pyrrolo[2,3-c]pyridine-2-amido}phenoxy)-3,6,9,12,15,18,21-heptaoxatricosan-1-yl]carbamoyl}ethyl)carbamoyl]-1-methylimidazol-4-yl}carbamoyl)ethyl]carbamoyl}-1-methylpyrrol-3-yl)-1-methyl-4-(3-{[1-methyl-4-(1-methylimidazole-2-amido)pyrrol-2-yl]formamido}propanamido)imidazole-2-carboxamide]",< 100
